Experimental data published in patent US20230158032A1, “PHARMACEUTICAL COMBINATION FOR THE TREATMENT OF MYELOPROLIFERATIVE NEOPLASMS” (Universitätsklinikum Jena, priority 2020, published 2023).
Entries after “also recorded” stand apart in the source; their conditions may differ. Like-named read-outs stand apart in the source and are kept apart here.

What was measured:
Type in all cases: cell-based
murine Jak2 V617F cells = test: MTS growth and proliferation assay of splicing factor inhibitors with and without Ruxolitinib; settings: for IC50: read-out: IC50, concentration of functional inhibitor needed to inhibit cell growth of 50%; for effect between the functional inhibitor and Ruxolitinib on cell growth inhibition: combination with Ruxolitinib (0.5 μM)
Protocol: Growth and proliferation was measured by MTS assay. Data shown are representative of 2 independent experiments with 8 technical replicates, mean±SD. The used splicing factor inhibitors are: a) GSK3326595, a Prmt5 inhibitor; b) Indisulam, a Rbm39 inhibitor; c) Herboxidiene; d) Pladienolide B.
The plates were read at 490 nm in Tecan Infinite M200 and the responses were analyzed using Graph Pad Prism.
After 72 hours, the incubation was stopped and growth measured by MTS assay.

[1] = test system: primary human Jak2-mutated cells; test: Phosphoproteome of primary patient samples after Jak-i exposure; settings: in vitro and in vivo exposure, 2 hours
Protocol: In brief, peripheral blood samples from patients with Jak2 mutated myeloproliferative neoplasms were collected, granulocytes isolated, and treated with DMSO or Ruxolitinb 0.5 μM for 2 hours (either in vitro or in vivo). Cells were lysed and processed in 4% SDC buffer (4% SDC, 100 mM Tris pH8.5, 10 mM TCEP and 40 mM CAA), heated for 5 mins at 95° C. and cooled on ice for 15 min. Lysed samples were sonicated, heated again for 5 mins and BCA quantified. Approximately 350 μg of proteins were digested with LysC and Trypsin overnight at room temperature and phosphopeptides were enriched by TiO2 beads as described elsewhere.

Ybx1 pS30 and pS34 = test: Drug-perturbed phosphoproteome profiling of Ybx1 phosphosites; settings: 10 μM for 1 hour, murine Jak2V617F BaF3
Text: The size and colour of the dots are proportional to the phosphosite intensity, Z-scored (log 2 intensity).
The cells were lysed in Gmdcl buffer and processed as mentioned in the phospho-proteome sample preparation protocol.

[2] = Mus musculus, 72 h, in the presence of Ruxolitinib (0.5 μM), 72 hours, MTS
[3] = functional inhibitor alone, 72 hours, MTS
[4] = in the presence of Ruxolitinib (0.5 μM), 72 hours, MTS

Row | Compound | IC50 (murine Jak2 V617F cells; [2]) | effect between the functional inhibitor and Ruxolitinib on cell growth inhibition (murine Jak2 V617F cells) | IC50 (murine Jak2 V617F cells; [3]) | IC50 (murine Jak2 V617F cells; [4]) | other results
1 | CC(=O)N1CCC(Nc2cc(C(=O)NC[C@H](O)CN3CCc4ccccc4C3)ncn2)CC1 [GSK3326595] | 4 nM | synergistic effect | – | – | IC50 (murine Jak2 V617F cells; Mus musculus, 72 h, functional inhibitor alone, 72 hours, MTS): 1000 nM
2 | NS(=O)(=O)c1ccc(S(=O)(=O)Nc2cccc3c(Cl)c[nH]c23)cc1 [Indisulam] | 500 nM | synergistic effect | – | – | 50% inhibition of cell growth reached or not (murine Jak2 V617F cells; [3]): not able to reach a 50% inhibition of cell growth
3 | N#CC[C@H](C1CCCC1)n1cc(-c2ncnc3[nH]ccc23)cn1 [Ruxolitinib] | – | – | – | – | phosphosites significantly altered [1]: 618 phosphosites
4 | CO[C@H]([C@@H](C)[C@H]1O[C@]1(C)C[C@H](C)/C=C/C=C(\C)[C@H]1O[C@@H](CC(=O)O)CC[C@@H]1C)[C@@H](C)O [Herboxidiene] | – | synergistic effect | ~16 nM | ~8 nM | –
5 | Pladienolide B | – | synergistic effect | ~15 nM | ~7 nM | –
6 | O=C(NOC[C@H](O)CO)c1ccc(F)c(F)c1Nc1ccc(I)cc1F [PD0325901] | – | – | – | – | Ybx1 phosphorylation at pS30 and pS34 (Ybx1 pS30 and pS34): responsive; also recorded: able to inhibit
